In brackets after ≈: the same amount, converted by molar mass. Like-named read-outs stand apart in the source and are kept apart here.
How the values were obtained:
Assay in all cases: MIC, microdilution in CAMHB 24 h
S. aureus 8325-4 = type: cell-based, Staphylococcus aureus; settings: 8325-4; for MIC: Staphylococcus aureus, 83254
S. aureus Newbould = type: cell-based, Staphylococcus aureus; settings: Newbould; for MIC: Staphylococcus aureus
S. aureus ATCC BAA-41 = type: cell-based, Staphylococcus aureus; settings: for MIC: Staphylococcus aureus
S. aureus Sa228c = type: cell-based, Staphylococcus aureus; settings: for MIC: Staphylococcus aureus
S. aureus CF2A-L = type: cell-based; settings: CF2A-L; for MIC: Staphylococcus aureus, CF2AL
S. aureus CF8E-L = type: cell-based, Staphylococcus aureus; settings: CF8E-L; for MIC: Staphylococcus aureus, CF8EL
[1] = 8 μg/ml of tomatidine, read-out: MIC +TO
[2] = absence of tomatidine, read-out: MIC −TO
[3] = Human (CF lungs), read-out: MIC

With `NC[C@H]1O[C@H](O[C@H]2[C@H](O)[C@@H](O[C@H]3O[C@H](CO)[C@@H](O)[C@H](N)[C@H]3O)[C@H](N)C[C@@H]2N)[C@H](O)[C@@H](O)[C@@H]1O` [Kanamycin, kanamycin] the “Fold (−TO/+TO)” value (S. aureus 8325-4; 8 μg/ml of tomatidine) was 2-4 fold, the MIC (S. aureus 8325-4; [1]) was 0.5 to 4 µg/mL (≈ 1.03 to 8.26 µM) and the MIC (S. aureus 8325-4; Laboratory strain, read-out: MIC) was 2 to 8 µg/mL (≈ 4.13 to 16.5 µM). The MIC (S. aureus 8325-4; [2]) was 2 to 8 µg/mL (≈ 4.13 to 16.5 µM), the “Fold (−TO/+TO)” value (S. aureus Newbould; 8 μg/ml of tomatidine) was 8 fold and the MIC (S. aureus Newbould; [1]) was 0.5 µg/mL (≈ 1.03 µM). The MIC (S. aureus Newbould; Cow (mastitis), read-out: MIC) was 4 µg/mL (≈ 8.26 µM), the MIC (S. aureus Newbould; [2]) was 4 µg/mL (≈ 8.26 µM) and the “Fold (−TO/+TO)” value (S. aureus ATCC BAA-41; ATCC BAA-41, 8 μg/ml of tomatidine) was 4-8 fold. The MIC (S. aureus ATCC BAA-41; ATCC BAA-41 / MRSA, ATCC BAA-41, Human (HA), MRSA, read-out: MIC) was 256 to 512 µg/mL (≈ 528 to 1060 µM), the MIC (S. aureus ATCC BAA-41; ATCCBAA41, ATCC BAA-41, ant(4′)-Ia, 8 μg/ml of tomatidine, read-out: MIC +TO) was 64 µg/mL (≈ 132 µM) and the MIC (S. aureus ATCC BAA-41; ATCCBAA41, ATCC BAA-41, ant(4′)-Ia, absence of tomatidine, read-out: MIC −TO) was 256 to 512 µg/mL (≈ 528 to 1060 µM). The “Fold (−TO/+TO)” value (S. aureus Sa228c; Sa228c, 8 μg/ml of tomatidine) was 2-8 fold, the MIC (S. aureus Sa228c; MRSA) was 512 to 1020 µg/mL (≈ 1060 to 2110 µM) and the MIC (S. aureus Sa228c; SA228C, read-out: MIC +TO) was 128 to 256 µg/mL (≈ 264 to 528 µM). The MIC (S. aureus Sa228c; SA228C, read-out: MIC −TO) was 512 to 1020 µg/mL (≈ 1060 to 2110 µM), the “Fold (−TO/+TO)” value (S. aureus CF2A-L; 8 μg/ml of tomatidine) was 8 fold and the MIC (S. aureus CF2A-L; [1]) was 0.5 µg/mL (≈ 1.03 µM). For the same molecule, the MIC (S. aureus CF2A-L; [3]) was 4 µg/mL (≈ 8.26 µM), the MIC (S. aureus CF2A-L; [2]) was 4 µg/mL (≈ 8.26 µM) and the “Fold (−TO/+TO)” value (S. aureus CF8E-L; 8 μg/ml of tomatidine) was 2-4 fold. It also gave an MIC (S. aureus CF8E-L; [1]) of 2 to 8 µg/mL (≈ 4.13 to 16.5 µM), an MIC (S. aureus CF8E-L; [3]) of 16 µg/mL (≈ 33 µM) and an MIC (S. aureus CF8E-L; [2]) of 16 µg/mL (≈ 33 µM).

Reference: patent US9457033B2, “Steroid alkaloids and uses thereof as antimicrobial agents against electron transport-deficient microbes and as potentiators for antimicrobial agents against pathogenic bacteria” (priority 2011, dated 2016)
